Reference: patent publication US12091696B2, “O-methyltransferase protein with highly specific catalytic function for multiple bias parent nuclei and encoding gene and use thereof” (INSTITUTE OF CHINESE MATERIA MEDICA CHINA ACADEMY OF …, priority 2023, dated 2024)

tested on: NnOMT6N323A; assay: In vitro enzymatic activity test of NnOMT6N323A (O-methylation of benzylisoquinoline substrates, UPLC-QTOF-MS/MS); assay type: biochemical, Nelumbo nucifera; details: mutant versus wild-type, FIG. 4
Method: (§1) An in vitro enzymatic activity reaction was conducted at a pH value of 8.0 and 37° C. for 12 h in a 100 μL system containing 50 mM of a potassium phosphate buffer, 100 μM of a substrate, 200 μM of a SAM donor, and 50 μg of the purified protein. 100 μL of methanol was added to terminate the above reaction, the protein was centrifuged at 12,000×g for 30 min in a centrifuge, and a resulting supernatant was passed through a 0.22 μm microporous membrane and injected into UPLC-QTOF-MS/MS for detection. A sample prepared in a same way with boiled purified protein was served as a negative control.
The NnOMT6N323A was studied for substrate promiscuity with 15 benzylisoquinoline compounds (norcoclaurine (1), coclaurine (2), N-methylcoclaurine (3), norarmepavine (4), armepavine (5), lotusine (6), asimilobine (7), N-methlyasimilobine (8), lirinidine (9), liensinine (10), isoliensinine (11), neferine (12), scoulerine (13), tetrahydrocolumbamine (14), and jatrorrhizine (15)).
The chromatographic conditions were as follows: a chromatographic column was an ACQUITY UPLC CSH C18 column (2.1 mm×50 mm, 1.7 μm). A mobile phase A was 0.1% formic acid water, and a mobile phase B was acetonitrile; gradient elution was conducted, including: 0-0.5 min, 2% B; 0.5-1 min, 2%-5% B; 1-5 min, 5%-9% B; […], 9%-10% B; […], 10%-15% B; 16-20 min, 15%-45% B; 20-22 min, 45% B-100% B. A sample injection volume was 2 μL, a column temperature was 35° C., and a flow rate was 0.3 mL/min.
The mass spectrometry conditions were as follows: an ion source was a Dusal ESI source; the substrate was detected in a positive ion (PI) mode with a scan range of m/z 100-1000. […] MS/MS analysis was conducted with a collision energy of 30 eV and a collision energy voltage of 20 V.

Row | Molecule | enhancement of catalytic activity of mutant NnOMT6N323A compared with wild-type O-methyltransferase
1 | COc1cc2c(cc1O)C(Cc1ccc(O)cc1)NCC2 (stereo not drawn) [Compound 2, coclaurine] | about two times

same assay, conditions: pH 8.0, 37° C., 12 h; 100 μM substrate, 200 μM SAM, 50 μg purified protein

Row | Molecule | catalytic (O-methylation) activity of NnOMT6N323A on substrate, in words | conversion rate (O-methylation of substrate by NnOMT6N323A)
2 | asimilobine [Compound 7] | could catalyze the O-methylation | 60.8%
3 | lirinidine [Compound 9] | no catalytic activity | –
4 | COc1cc2c(cc1O)[C@@H]1Cc3ccc(OC)c(OC)c3CN1CC2 [Compound 14, tetrahydrocolumbamine] | could catalyze the O-methylation | about 42.3%
5 | N-methlyasimilobine [Compound 8] | could catalyze the O-methylation | 55.4%
6 | COc1cc2c(cc1OC)[C@@H]1Cc3ccc(OC)c(O)c3CN1CC2 [Compound 13a, tetrahydropalmatrubine] | further catalyzed | –
7 | Oc1ccc(CC2NCCc3cc(O)c(O)cc32)cc1 (stereo not drawn) [Compound 1, norcoclaurine] | could catalyze the O-methylation | 63.7%
8 | COc1cc2c(cc1O)CC[n+]1cc3c(OC)c(OC)ccc3cc1-2 [Compound 15, jatrorrhizine] | no activity | –
9 | COc1cc2c(cc1O)[C@@H]1Cc3ccc(OC)c(O)c3CN1CC2 [Compound 13, scoulerine] | could catalyze the O-methylation | –
10 | COc1cc2c(cc1O)[C@@H](Cc1ccc(O)cc1)N(C)CC2 [Compound 3, N-methylcoclaurine] | could catalyze the O-methylation | 47.6%
11 | COc1cc2c(cc1O)C(Cc1ccc(O)cc1)NCC2 (stereo not drawn) [Compound 2, coclaurine] | could catalyze the O-methylation | 34.8%

tested on: wild-type O-methyltransferase; assay: In vitro enzymatic activity of wild-type O-methyltransferase (comparison with mutant); assay type: biochemical, Nelumbo nucifera; details: same method as Example 1
Method: as §1
A specific experimental method was the same as that in Example 1.

Row | Molecule | catalytic activity of wild-type O-methyltransferase on substrate, in words
12 | COc1cc2c(cc1O)[C@@H]1Cc3ccc(OC)c(OC)c3CN1CC2 [Compound 14, tetrahydrocolumbamine] | no catalytic activity
